Measured values: US11680060B2, “Bicycloheptane pyrrolidine orexin receptor agonists” (Merck Sharp & Dohme LLC, priority 2020, dated 2023)

Target: human OX2R (Homo sapiens (Human), UniProt O43614)
Assay: IPOne (IP-1) assay in CHO cells expressing human OX2R
Assay type: cell-based
Conditions: for Emax: CHO, read-out: Emax (%); for IC50: CHO cells expressing human OX2R, IP-One detection, 2 hours incubation, EC50 = inflection point of four parameter logistic fit, read-out: hOX2R_IP_IC50
How it was run: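 CHO cells stably expressing human OX2R were stimulated with compound (10-point ½-log dilutions) for 2 h at 37 °C. IP-1 accumulation was read by HTRF (IP-One, 665/620 nm). EC50 from a four-parameter fit; % effect relative to 1 μM reference agonist control.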

[1] = percentage of mean max effect of a reference compound at 1 uM (100% activity by comparison to Orexin A), human OX2R

Chain of human OX2R (O43614 whole entry): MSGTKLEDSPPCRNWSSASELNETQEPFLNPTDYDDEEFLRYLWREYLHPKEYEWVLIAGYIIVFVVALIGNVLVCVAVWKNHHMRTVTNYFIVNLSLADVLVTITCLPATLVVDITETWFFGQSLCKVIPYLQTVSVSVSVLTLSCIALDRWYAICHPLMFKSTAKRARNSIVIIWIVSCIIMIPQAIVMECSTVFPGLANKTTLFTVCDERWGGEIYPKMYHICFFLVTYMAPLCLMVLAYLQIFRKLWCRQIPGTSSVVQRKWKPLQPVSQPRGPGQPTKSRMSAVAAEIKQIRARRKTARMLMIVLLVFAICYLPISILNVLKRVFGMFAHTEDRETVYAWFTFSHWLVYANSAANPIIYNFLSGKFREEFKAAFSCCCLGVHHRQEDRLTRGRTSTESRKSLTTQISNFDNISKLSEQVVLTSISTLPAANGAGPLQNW

COC[C@@H]1C[C@H](NS(C)(=O)=O)[C@H](CO[C@H]2CC[C@@]3(c4ncc(F)cn4)C[C@H]3C2)N1C(=O)OC [Example 132, methyl (2R,3S,5S)-2-((((1S,3S,6R)-6-(5-fluoropyrimidin-2-yl)bicyclo[4.1.0]heptan-3-yl)oxy)methyl)-5-(methoxymethyl)-3-(methylsulfonamido)pyrrolidine-1-carboxylate]
Emax [1]: 103%

COC(=O)N1[C@H](C)C[C@H](NS(=O)(=O)C(F)F)[C@@H]1CO[C@@H]1CC[C@]2(c3ncccn3)C[C@@H]2C1 [Example 69, methyl (2R,3S,5R)-3-((difluoromethyl)sulfonamido)-5-methyl-2-((((1R,3R,6S)-6-(pyrimidin-2-yl)bicyclo[4.1.0]heptan-3-yl)oxy)methyl)pyrrolidine-1-carboxylate]
Emax [1]: 101%

COC(=O)N1CC[C@H](NS(C)(=O)=O)[C@@H]1COC1CCC2(c3ncccn3)CC2C1 (stereo partly drawn) [Example 21, methyl (2R,3S)-3-(methylsulfonamido)-2-(((6-(pyrimidin-2-yl)bicyclo[4.1.0]heptan-3-yl)oxy)methyl)pyrrolidine-1-carboxylate]
Emax (%) [1]: 94.6%

COC(=O)N1[C@H](C)C[C@H](NS(=O)(=O)N(C)C)[C@@H]1COC1CCC2(c3cc(F)cc(F)c3)CC2C1 (stereo partly drawn) [Example 4, methyl (2R,3S,5R)-2-(((6-(3,5-difluorophenyl)bicyclo[4.1.0]heptan-3-yl)oxy)methyl)-3-((N,N-dimethylsulfamoyl)amino)-5-methylpyrrolidine-1-carboxylate]
Emax [1]: 97.3%

CC(C)OC(=O)N1[C@H](C)C[C@H](NS(=O)(=O)CF)[C@@H]1CO[C@@H]1CC[C@]2(c3ncc(F)cn3)C[C@@H]2C1 (single isomer, unassigned) [Example 99]
IC50: 2.5 nM | Emax [1]: 103%

COC(=O)N1[C@@H]2CCC[C@@H]2[C@H](NS(C)(=O)=O)[C@@H]1CO[C@H]1CC[C@@]2(c3ncc(F)cn3)C[C@H]2C1 (single isomer, unassigned) [Example 131]
IC50: 1.8 nM | Emax [1]: 101%

COC(=O)N1[C@H](C)C[C@H](NS(=O)(=O)C(F)F)[C@@H]1COC1CCC2(c3ncccn3)CC2C1 (mixture of isomers) [Example 67, methyl (2R,3S,5R)-3-((difluoromethyl)sulfonamido)-5-methyl-2-(((6-(pyrimidin-2-yl)bicyclo[4.1.0]heptan-3-yl)oxy)methyl)pyrrolidine-1-carboxylate]
IC50: 3.4 nM | Emax [1]: 101%

CC(C)OC(=O)N1[C@H](C)C[C@H](NS(C)(=O)=O)[C@@H]1CO[C@@H]1CC[C@]2(c3ncc(F)cn3)C[C@@H]2C1 [Example 29, isopropyl (2R,3S,5R)-2-((((1R,3R,6S)-6-(5-fluoropyrimidin-2-yl)bicyclo[4.1.0]heptan-3-yl)oxy)methyl)-5-methyl-3-(methylsulfonamido)pyrrolidine-1-carboxylate]
Emax [1]: 102%

COC(=O)N1[C@H](C)C[C@H](NS(=O)(=O)CF)[C@@H]1CO[C@H]1CC[C@@]2(c3ncc(Cl)c(OC)n3)C[C@H]2C1 (single isomer, unassigned) [Example 84]
IC50: 4.6 nM | Emax [1]: 101%

COC(=O)N1[C@H](C)C[C@H](NS(=O)(=O)N(C)C)[C@@H]1COC1CCC2(c3ncc(F)cn3)CC2C1 (stereo partly drawn) [Example 169, methyl (2R,3S,5R)-3-((N,N-dimethylsulfamoyl)amino)-2-(((6-(5-fluoropyrimidin-2-yl)bicyclo[4.1.0]heptan-3-yl)oxy)methyl)-5-methylpyrrolidine-1-carboxylate]
IC50: 1.5 nM

CC(C)OC(=O)N1[C@H](C)C[C@H](NS(C)(=O)=O)[C@@H]1CO[C@@H]1CC[C@]2(c3ncc(Cl)cn3)C[C@@H]2C1 (single isomer, unassigned) [Example 150]
IC50: 19.6 nM | Emax [1]: 102%

CC(C)OC(=O)N1[C@H](C)C[C@H](NS(C)(=O)=O)[C@@H]1CO[C@H]1CC[C@@]2(c3ncc(F)cn3)C[C@H]2C1 [Example 28, isopropyl (2R,3S,5R)-2-((((1S,3S,6R)-6-(5-fluoropyrimidin-2-yl)bicyclo[4.1.0]heptan-3-yl)oxy)methyl)-5-methyl-3-(methylsulfonamido)pyrrolidine-1-carboxylate]
Emax [1]: 103%

COC(=O)N1[C@H](C)C[C@H](NS(C)(=O)=O)[C@@H]1CO[C@H]1CC[C@@]2(c3ncc(C)cn3)C[C@H]2C1 (single isomer, unassigned) [Example 156]
IC50: 19.2 nM | Emax [1]: 102%

CCC(F)(F)COC(=O)N1[C@H](C)C[C@H](NS(C)(=O)=O)[C@@H]1CO[C@H]1CC[C@@]2(c3ncc(F)cn3)C[C@H]2C1 [Example 60, 2,2-difluorobutyl (2R,3S,5R)-2-((((1S,3S,6R)-6-(5-fluoropyrimidin-2-yl)bicyclo[4.1.0]heptan-3-yl)oxy)methyl)-5-methyl-3-(methylsulfonamido)pyrrolidine-1-carboxylate]
Emax [1]: 104%

COC(=O)N1[C@H](C(F)F)C[C@H](NS(=O)(=O)CF)[C@@H]1CO[C@H]1CC[C@@]2(c3ncc(F)cn3)C[C@H]2C1 (single isomer, unassigned) [Example 113]
IC50: 0.6 nM | Emax [1]: 103%

COC(=O)N1[C@H](C)C[C@H](NS(C)(=O)=O)[C@@H]1CO[C@H]1CC[C@@]2(c3ncc(C#N)cn3)C[C@H]2C1 [Example 190, methyl (2R,3S,5R)-2-((((1S,3S,6R)-6-(5-cyanopyrimidin-2-yl)bicyclo[4.1.0]heptan-3-yl)oxy)methyl)-5-methyl-3-(methylsulfonamido)pyrrolidine-1-carboxylate]
IC50: 49.5 nM | Emax [1]: 103%

COC(=O)N1[C@H](C)C[C@H](NS(=O)(=O)CF)[C@@H]1COC1CCC2(c3ncc(F)c(OC)n3)CC2C1 (stereo partly drawn) [Example 85, methyl (2R,3S,5R)-2-(((6-(5-fluoro-4-methoxypyrimidin-2-yl)bicyclo[4.1.0]heptan-3-yl)oxy)methyl)-3-((fluoromethyl)sulfonamido)-5-methylpyrrolidine-1-carboxylate]
Emax [1]: 97.1%

CCS(=O)(=O)N[C@H]1C[C@@H](C)N(C(=O)OC)[C@H]1CO[C@@H]1CC[C@]2(c3ncc(F)cn3)C[C@@H]2C1 [Example 47, methyl (2R,3S,5R)-3-(ethylsulfonamido)-2-((((1R,3R,6S)-6-(5-fluoropyrimidin-2-yl)bicyclo[4.1.0]heptan-3-yl)oxy)methyl)-5-methylpyrrolidine-1-carboxylate]
Emax [1]: 98.4%

COC(=O)N1[C@H](C)C[C@H](NS(=O)(=O)CF)[C@@H]1COC1CCC2(c3ncc(Cl)cn3)CC2C1 (stereo partly drawn) [Example 94, methyl (2R,3S,5R)-2-(((6-(5-chloropyrimidin-2-yl)bicyclo[4.1.0]heptan-3-yl)oxy)methyl)-3-((fluoromethyl)sulfonamido)-5-methylpyrrolidine-1-carboxylate]
Emax [1]: 102%

CC(C)OC(=O)N1CCC[C@H](NS(=O)(=O)C2CC2)[C@@H]1COC1CCC2(c3ncc(F)cn3)CC2C1 (stereo partly drawn) [Example 122, isopropyl (2R,3S)-3-(cyclopropanesulfonamido)-2-(((6-(5-fluoropyrimidin-2-yl)bicyclo[4.1.0]heptan-3-yl)oxy)methyl)piperidine-1-carboxylate]
Emax [1]: 104%

C[C@@H]1C[C@H](NS(C)(=O)=O)[C@H](CO[C@H]2CC[C@@]3(c4ncc(F)cn4)C[C@H]3C2)N1C(=O)OCCC(F)F [Example 52, 3,3-difluoropropyl (2R,3S,5R)-2-((((1S,3S,6R)-6-(5-fluoropyrimidin-2-yl)bicyclo[4.1.0]heptan-3-yl)oxy)methyl)-5-methyl-3-(methylsulfonamido)pyrrolidine-1-carboxylate]
Emax [1]: 102%

COC(=O)N1CC[C@H](NS(C)(=O)=O)[C@@H]1CO[C@H]1CC[C@@]2(c3ncccn3)C[C@H]2C1 (single isomer, unassigned) [Example 177]
IC50: 238 nM | Emax [1]: 99.8%

CC(C)OC(=O)N1[C@H](C)C[C@H](NS(=O)(=O)C(F)F)[C@@H]1CO[C@H]1CC[C@@]2(c3ncc(Cl)cn3)C[C@H]2C1 (single isomer, unassigned) [Example 81]
IC50: 4.5 nM | Emax [1]: 100%

COC(=O)N1[C@H](C)C[C@H](NS(=O)(=O)N(C)C)[C@@H]1COC1CCC2(c3ncccn3)CC2C1 (stereo partly drawn) [Example 6, methyl (2R,3S,5R)-3-((N,N-dimethylsulfamoyl)amino)-5-methyl-2-(((6-(pyrimidin-2-yl)bicyclo[4.1.0]heptan-3-yl)oxy)methyl)pyrrolidine-1-carboxylate]
Emax [1]: 101%

CCS(=O)(=O)N[C@H]1C[C@@H](C(F)F)N(C(=O)OC)[C@H]1COC1CCC2(c3ncc(F)cn3)CC2C1 (stereo partly drawn) [Example 117, methyl (2R,3S,5S)-5-(difluoromethyl)-3-(ethylsulfonamido)-2-(((6-(5-fluoropyrimidin-2-yl)bicyclo[4.1.0]heptan-3-yl)oxy)methyl)pyrrolidine-1-carboxylate]
Emax [1]: 101%

CCS(=O)(=O)N[C@H]1CCCN(C(=O)OC(C)C)[C@H]1COC1CC[C@@]2(c3ncc(F)cn3)CC2C1 (stereo partly drawn) [Example 126, isopropyl (2R,3S)-3-(ethylsulfonamido)-2-(((6-(5-fluoropyrimidin-2-yl)bicyclo[4.1.0]heptan-3-yl)oxy)methyl)piperidine-1-carboxylate]
Emax [1]: 104%

C[C@@H]1C[C@H](NS(C)(=O)=O)[C@H](CO[C@H]2CC[C@@]3(c4ncc(F)cn4)C[C@H]3C2)N1C(=O)OCC1CC1(F)F (stereo partly drawn) [Example 59, (2,2-difluorocyclopropyl)methyl (2R,3S,5R)-2-((((1S,3S,6R)-6-(5-fluoropyrimidin-2-yl)bicyclo[4.1.0]heptan-3-yl)oxy)methyl)-5-methyl-3-(methylsulfonamido)pyrrolidine-1-carboxylate]
Emax [1]: 104%
